# Experimental data published in patent publication US5461057A, “Hydro-ethano-indeno-pyridines” (priority 1994, dated 1995).
# Where two headings read alike, the source gives them in different places.
# How the values were obtained:
# Assay type in all cases: cell-based
# MTT cytotoxicity assay = conditions: human, lox melanoma cells; for CC50 at 1 h: read-out: MTT 1 Hr LD50
# Experimental: LOX human melanoma cells, in RPMI medium with 2 mg/ml BSA and 25 mM HEPES, pH 7.4, were seeded at 4×10^4 cells/well in 96-well microtiter plates and grown overnight in a humidified 37° C. incubator. On the following day, the medium was aspirated and wells were washed once with 0.1 ml of DPBS. Compounds (0.1 ml) in DPBS were added to wells in quadruplicate at appropriate concentrations. The cells were then incubated with test compound for 1 hour at 37° C. Wells were aspirated and washed 2× with 0.1 ml DPBS. MTT [3-(4,5-Dimethylthiazol-2-yl)-2,5-diphenyltetrazolium bromide] (0.1 ml of 1 mg/ml solution in PBS from Sigma Chemical Co.) was added to each well and incubated for 2 hour at 37° C. MTT was aspirated and 0.1 ml of 50% N,N-dimethylformamide with 20% sodium dodecyl sulfate was added to each well. Plates were shaken for 10 minutes on a Titer-Plate shaker (Labline) at room temperature. Optical density was read at 570 nm with a plate-reading spectrophotometer (Dynatech MR5000).
# [1] = system: LOX human melanoma cell adhesion to human fibronectin; experiment: LOX melanoma cell adhesion to fibronectin; conditions: Homo sapiens, LOX; for inhibition at 10 µM: read-out: % Inhibition at 10 μM; for inhibition at 50 µM: read-out: % Inhibition at 50 μM
# Outline: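 Compound added to fibronectin-coated (140 ng/well), BSA-blocked wells before LOX cells (1×10^5/well, detached with urea/EDTA). Cells adhered 1 h at 37 °C, then washed. Adherent cells quantified by calcein AM fluorescence (485/530 nm); IC50 for adhesion inhibition.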
# [2] = system: LOX human melanoma cell adhesion to human vitronectin; experiment: LOX cell adhesion to vitronectin; conditions: read-out: Vitronectin IC50
# Experimental: (§1) Adhesion assays were run essentially as described previously (Pai et al., J. Biomed. Res. 2: 53, 1992). 96-well plates were coated with human fibronectin (140 ng/well), human vitronectin (75 ng/well), human collagen I (100 ng/well), human collagen IV (100 ng/well), human fibrinogen (1 μg/well), murine laminin (600 ng/well), or polylysine, and incubated overnight in a humidified 37° C. incubator. Excess fibronectin or other substrate was then removed and 0.2 ml of 2 mg/ml bovine serum albumin (BSA)in Dulbecco's phosphate-buffered saline (DPBS) was added to each well, incubated for 2 hours at 37° C., and removed. LOX human melanoma cells, M27 murine lung carcinoma cells or B16F10 mouse melanoma cells were detached from tissue culture flasks with RPMI medium containing 0.2M urea and 10 mM EDTA, and 0.18 ml of cells were added to each well to a final cell concentration of 1×10^5 cells/well. For inhibition studies 20 μl of 10× compound was added to the wells prior to cell addition. Cells were allowed to adhere for 1 hour at 37° C. The wells were then gently washed twice with 0.2 ml DPBS. The fluorescent dye calcein AM (Molecular Probes, Eugene Oreg.) in DPBS (0.1 ml of 1 μM) was added to each well, and the plates were incubated for 1 hour at room temperature. Adherent cells were quantitated by reading the fluorescence on a Cytofluor 2300 fluorescent plate reader (Millipore) at 485 nm excitation and 530 nm emission.
# [3] = system: B16-F10 mouse melanoma cell adhesion to fibronectin; experiment: B16-F10 melanoma cell adhesion to fibronectin; conditions: read-out: B16 FN IC50
# Experimental: as §1
# [4] = system: LOX human melanoma cell adhesion to human collagen I; experiment: LOX cell adhesion to collagen I; conditions: read-out: Collagen I IC50
# Experimental: as §1
# LOX human melanoma cells = experiment: Tumor cell invasion through collagen/fibronectin coated membranes; conditions: for IC50: Homo sapiens, 5 hours; for inhibition of in vitro tumor cell invasion: fibronectin/collagen matrix
# Experimental: […] Cell Invasion Through Collagen/Fibronectin Coated Membranes:
# Nucleopore polycarbonate membranes (8 μm pore size) were coated with 0.05 ml of type I collagen and allowed to dry overnight. 210 μl of serum free DMEM with BSA was added to each Boyden chamber. Membranes were placed in chambers and upper chambers were screwed on. Human fibronectin (50 μl of 0.1 mg/ml solution in DMEM with BSA) was added to the top chamber and allowed to sit on membranes for 1 hour at room temperature. Compounds (50 μl) at 10× concentration in DMEM with BSA were added to the chambers. LOX melanoma cells were detached from flasks with trypsin/EDTA solution and resuspended in RPMI with 10% fetal bovine serum. Cells were centrifuged, washed 2× with DMEM with BSA, and resuspended in 10 ml of DMEM with BSA. LOX cells (0.45 ml of 7.8×10^5 cells per ml) were added to each chamber and chambers were incubated for 5 hours at 37° C. The medium was removed from the upper chamber by aspiration, the top chamber was unscrewed, and the membrane was removed. The membrane was inverted, pinned to a dissecting tray, and fixed with Diff Quik fixative for 3 minutes The fixative was then removed and Diff Quik Stain was added for 2 minutes. The stain was decanted and membranes were rinsed with distilled water. Membranes were inverted onto glass slides, and non-invading cells were wiped away with a cotton swab. Permount was added to the slide and the membrane was covered with a cover slip. The number of cells that invaded was quantitated on a Nikon TMS microscope with C-2 Image Analyzer software (Olympus Corp.).
# The greater potency of the compounds in this assay (IC50 for compound B<400 nM) may result from the longer duration of this assay (5 hours) relative to the fibronectin adhesion assay (1 hour).
# [5] = system: LOX human melanoma cell adhesion to polylysine; experiment: LOX melanoma cell adhesion to polylysine; conditions: read-out: Poly Lys IC50
# [6] = system: LOX human melanoma cell adhesion to human fibrinogen; experiment: LOX cell adhesion to fibrinogen; conditions: read-out: Fibrinogen IC50
# Experimental: as §1
# [7] = system: M27 murine lung carcinoma cell adhesion to fibronectin; experiment: M27 lung carcinoma cell adhesion to fibronectin; conditions: Mus musculus; read-out: M27 FN IC50
# Experimental: as §1
# [8] = system: LOX human melanoma cell adhesion to human collagen IV; experiment: LOX cell adhesion to collagen IV; conditions: read-out: Collagen IV IC50
# Experimental: as §1
# [9] = Calcein cytotoxicity assay; conditions: human, lox melanoma cells; for CC50 at 2 h / CC50 at 6 h: calcein AM assay; for CC50 at 2 h: read-out: 2 Hr Tox LD50; for CC50 at 6 h: read-out: 6 Hr Tox LD50
smiles,measurement,setting,value
CN1C2CCC1C1C(=C(c3ccc(Cl)cc3)c3ccccc31)C2 (stereo not shown) [C],CC50 at 1 h,MTT cytotoxicity assay,95.1 µM
same,IC50,"[1]; 1 h, read-out: LOX FN IC50",7.3 µM
same,inhibition at 10 µM,[1],58.6%
same,inhibition at 50 µM,[1],101%
same,IC50,[1]; read-out: Fibronectin IC50,7.3 µM
same,IC50,[2],5.9 µM
same,IC50,[3],15.1 µM
same,IC50,[4],4 µM
same,IC50,LOX human melanoma cells; read-out: Invasion IC50,0.66 µM
same,inhibition of in vitro tumor cell invasion,LOX human melanoma cells,inhibit in vitro tumor cell invasion through a fibronectin/collagen matrix
same,IC50,[5],248 µM
same,IC50,[6],6.2 µM
same,IC50,[7],13.7 µM
same,IC50,[8],9.9 µM
same,CC50 at 2 h,[9]; 2 hours,85.3 µM
same,CC50 at 6 h,[9]; 6 hours,22.5 µM
COc1ccc(C2=C3CC4CCC(N4)C3c3ccccc32)cc1 (stereo not shown) [Compound B],selectivity ratio at 1 h,"MTT cytotoxicity assay; MTT, read-out: selectivity for blockade of fibronectin adhesion vs. cytotoxicity (MTT 1 hour)",19
same,CC50 at 1 h,MTT cytotoxicity assay,97.6 µM
same,IC50,"[1]; 1 h, read-out: LOX FN IC50",5.1 µM
same,inhibition at 10 µM,[1],61.8%
same,inhibition at 50 µM,[1],101%
same,IC50,[1]; read-out: Fibronectin IC50,5.1 µM
same,IC50,[2],16.8 µM
same,IC50,[3],14.7 µM
same,IC50,[4],6.7 µM
same,IC50,LOX human melanoma cells; read-out: Invasion IC50,< 0.4 µM
same,IC50,LOX human melanoma cells; read-out: Invasion IC50 (text),< 0.4 µM
same,inhibition of in vitro tumor cell invasion,LOX human melanoma cells,inhibit in vitro tumor cell invasion through a fibronectin/collagen matrix
same,IC50,[5],22.3 µM
same,IC50,[6],9.9 µM
same,IC50,[7],17.1 µM
same,IC50,[8],16.2 µM
same,CC50 at 2 h,[9]; 2 hours,74.5 µM
same,selectivity ratio at 2 h,"[9]; 2 hours, calcein AM, read-out: selectivity for blockade of fibronectin adhesion vs. cytotoxicity (2 Hour Tox)",15
same,CC50 at 6 h,[9]; 6 hours,24.6 µM
same,selectivity ratio at 6 h,"[9]; 6 hours, calcein AM, read-out: selectivity for blockade of invasion vs. cytotoxicity (6 Hour Tox)",> 61
Cc1ccc(C2=C3CC4CCC(C3c3ccccc32)N4C)cc1 (stereo not shown) [J],CC50 at 1 h,MTT cytotoxicity assay,54.6 µM
same,IC50,"[1]; 1 h, read-out: LOX FN IC50",5.3 µM
same,inhibition at 10 µM,[1],31.1%
same,inhibition at 50 µM,[1],101%
same,IC50,[1]; read-out: Fibronectin IC50,5.3 µM
same,IC50,[2],12.8 µM
same,IC50,[3],15.9 µM
same,IC50,[4],4.5 µM
same,IC50,LOX human melanoma cells; read-out: Invasion IC50,0.48 µM
same,inhibition of in vitro tumor cell invasion,LOX human melanoma cells,inhibit in vitro tumor cell invasion through a fibronectin/collagen matrix
same,IC50,[5],53.2 µM
same,IC50,[6],13.5 µM
same,IC50,[7],17.9 µM
same,IC50,[8],10 µM
same,CC50 at 2 h,[9]; 2 hours,58.4 µM
same,CC50 at 6 h,[9]; 6 hours,30.6 µM
